Measured values as given in US9409952B2, “Peptide-compound cyclization method” (Chugai Seiyaku Kabushiki Kaisha, priority 2011, dated 2016).
Where two headings read alike, the source gives them in different places. Starred links: 1 amine or outer side, 2 acyl side, 3 side chain; linkers in the order of their positions; H or OH if unused. Positions of bridges follow the written chain, without caps; N, C: chain ends. Non-standard residues stand in square brackets, D forms with d. Residues, ends and D or L forms follow the SMILES beside them. *: point of attachment. Phe(3-(CH2)4CO) = O=C([C@H](Cc1cccc(CCCCC(=O)[*:3])c1)N[*:1])[*:2]; Ala(4-thiazolyl) = N[C@@H](Cc1cscn1)C(=O)O; NMeF = CN[C@@H](Cc1ccccc1)C(=O)O; NMeGABA = CN(CCCC(=O)[*:2])[*:1]; NMeI = CC[C@H](C)[C@H](NC)C(=O)O; NMeβAla = CN(CCC(=O)[*:2])[*:1]; Aoc(2) = CCCCCC[C@H](N)C(=O)O; NMeL = CN[C@@H](CC(C)C)C(=O)O; NMeV = CN[C@H](C(=O)O)C(C)C; NMeA = CN[C@@H](C)C(=O)O; Piperidide = C1CCN(*)CC1; dNMeA = CN[C@H](C)C(=O)O; β3hA = C[C@H](N)CC(=O)O; Sar = CNCC(=O)O; tBu = CC(C)(C)*

Tests used:
[1] = PAMPA (parallel artificial membrane permeability assay); type: in vitro ADME; settings: for Papp at 18 hours, 50 µM: PAMPA
In short: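 Artificial membrane was 10% (w/v) egg lecithin plus 0.5% (w/v) cholesterol in dodecane on a PVDF filter. A 10 mM DMSO stock was added at 0.5% (v/v) to donor buffer (50 mM MOPSO, pH 6.5, 5.0% glycocholic acid). After 18 h at 37 °C, LC/MS or LC/UV gave donor and acceptor levels for Pe.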

[2] = Metabolic stability in human hepatic microsome; type: in vitro ADME; settings: microsomes
[3] = membrane permeation rate (Pe), 50 mM MOPSO buffer pH 6.5 with 5.0% glycocholic acid, 37° C., 18 hours
[4] = pH 7.4, human hepatic microsome, NADPH(+), read-out: CL NADPH(+)
[5] = membrane permeation rate (Pe), 50 mM MOPSO buffer pH 6.5 with 5.0% glycocholic acid, 37° C., 18 hours, read-out: iPAMPA Pe

Row | Compound | iPAMPA Pe [1, 3] | microsomal CLint at 1 uM [2, 4] | Papp at 18 hours, 50 µM ([1]; pH 6.5) | microsomal CLint at 1 uM ([2]; human, pH 7.4, CL NADPH(+)) | Papp at 18 hours, 50 µM [1, 5]
1 | CC[C@H](C)[C@@H]1NC(=O)[C@H](CC(C)C)N(C)C(=O)CCCCc2cccc(c2)C[C@@H](C(=O)N2CCCCC2)NC(=O)[C@H](CC(C)C)N(C)C(=O)[C@H](C)N(C)C(=O)[C@H]([C@@H](C)O)NC(=O)[C@H](CC(C)C)N(C)C(=O)[C@H](COC(C)(C)C)NC(=O)[C@H](Cc2ccccc2)N(C)C(=O)[C@H](Cc2ccccc2)N(C)C1=O [DP-862] ([NMeL]I[NMeF][NMeF]S(tBu)[NMeL]T[NMeA][NMeL][Phe(3-(CH2)4CO)]-Piperidide; lactam N-10) | 1.0E−07 | 118 µL/min/mg |  |  | 
2 | CC(C)C[C@H]1C(=O)N[C@H](C(=O)N(C)[C@@H](Cc2ccccc2)C(=O)N[C@@H](C)C(=O)N2CCCCC2)CC(=O)N(C)[C@H](C)C(=O)N(C)[C@@H](Cc2ccccc2)C(=O)N(C)[C@@H](CC(C)C)C(=O)N[C@@H]([C@@H](C)O)C(=O)N(C)[C@@H](C)C(=O)N(C)[C@@H](CC(C)C)C(=O)N[C@@H](C(C)C)C(=O)N1C [DP-313] ([dNMeA][NMeF][NMeL]T[NMeA][NMeL]V[NMeL]D[NMeF]A-Piperidide; lactam N-9) |  |  | 21 ×10⁻⁶ cm/s | 61 µL/min/mg | 
3 | CC(C)C[C@@H]1NC(=O)[C@H](CC(C)C)N(C)C(=O)[C@H](C)N(C)C(=O)C[C@@H](C(=O)N2CCCCC2)NC(=O)[C@H](CC(C)C)N(C)C(=O)[C@H](Cc2ccccc2)N(C)C(=O)[C@H](Cc2ccccc2)N(C)C(=O)[C@H]([C@@H](C)O)NC(=O)[C@H](Cc2ccccc2)N(C)C1=O [DP-442] ([NMeA][NMeL]L[NMeF]T[NMeF][NMeF][NMeL]D-Piperidide; lactam N-9) |  | 159 µL/min/mg |  |  | 38 ×10⁻⁶ cm/s
4 | CC[C@H](C)[C@@H]1NC(=O)[C@H](CC(C)C)N(C)C(=O)[C@H](C(C)C)N(C)C(=O)[C@H](C)NC(=O)[C@H](C)N(C)C(=O)[C@H](Cc2ccccc2)NC(=O)[C@H]([C@@H](C)O)NC(=O)[C@H](CC(C)C)N(C)C(=O)[C@H](CC(C)C)N(C)C(=O)[C@H](C)N(C)C(=O)C[C@H](C)NC1=O [DP-770] (cyclo(A[NMeV][NMeL]I[β3hA][NMeA][NMeL][NMeL]TF[NMeA])) |  |  | 33 ×10⁻⁶ cm/s | 95 µL/min/mg | 
5 | CC(C)C[C@H]1C(=O)N(C)[C@@H](C)C(=O)N[C@@H]([C@@H](C)O)C(=O)N(C)[C@@H](C)C(=O)N(C)[C@@H](C(C)C)C(=O)N[C@@H](COC(C)(C)C)C(=O)N[C@H](C(=O)N2CCCCC2)CC(=O)N(C)CCC(=O)N(C)[C@@H](Cc2ccccc2)C(=O)N[C@@H](C)C(=O)N(C)[C@@H](C)C(=O)N[C@@H](Cc2ccccc2)C(=O)N1C [DP-465] ([NMeβAla][NMeF]A[NMeA]F[NMeL][NMeA]T[NMeA][NMeV]S(tBu)D-Piperidide; lactam N-12) |  | 23 µL/min/mg |  |  | 5.1 ×10⁻⁶ cm/s
6 | CC(C)C[C@H]1C(=O)N(C)[C@@H](C)C(=O)N(C)[C@@H](Cc2ccccc2)C(=O)N[C@@H](COC(C)(C)C)C(=O)N[C@H](C(=O)N2CCCCC2)CC(=O)N(C)CCCC(=O)N[C@@H]([C@@H](C)O)C(=O)N1C [DP-677] ([NMeGABA]T[NMeL][NMeA][NMeF]S(tBu)D-Piperidide; lactam N-7) |  | 45 µL/min/mg |  |  | 7.2 ×10⁻⁶ cm/s
7 | CC(C)C[C@H]1C(=O)N[C@@H](C(C)C)C(=O)N(C)[C@@H](C)C(=O)N[C@@H]([C@@H](C)O)C(=O)N(C)[C@@H](C)C(=O)N[C@H](C(=O)N2CCCCC2)CC(=O)N(C)CCC(=O)N(C)[C@@H](C)C(=O)N(C)[C@@H](Cc2ccccc2)C(=O)N[C@@H](C)C(=O)N(C)[C@@H](CC(C)C)C(=O)N(C)CC(=O)N1C [DP-511] ([NMeβAla][NMeA][NMeF]A[NMeL][Sar][NMeL]V[NMeA]T[NMeA]D-Piperidide; lactam N-12) |  | 15 µL/min/mg |  |  | 1.1 ×10⁻⁶ cm/s
8 | CC[C@H](C)[C@H]1C(=O)N[C@@H](C)C(=O)N(C)[C@@H](CC(C)C)C(=O)N[C@@H](COC(C)(C)C)C(=O)N(C)[C@@H](CC(C)C)C(=O)N[C@@H](C)CC(=O)N(C)CCC(=O)N[C@@H](Cc2ccccc2)C(=O)N(C)[C@@H](Cc2ccccc2)C(=O)N(C)[C@@H](CC(C)C)C(=O)N[C@@H]([C@@H](C)O)C(=O)N(C)[C@@H](C)C(=O)N1C [DP-756] (cyclo(A[NMeL]S(tBu)[NMeL][β3hA][NMeβAla]F[NMeF][NMeL]T[NMeA][NMeI])) |  |  | 30 ×10⁻⁶ cm/s | 65 µL/min/mg | 
9 | CC(C)C[C@@H]1NC(=O)[C@H](CC(C)C)N(C)C(=O)[C@H](C)N(C)C(=O)[C@@H](C(C)C)NC(=O)C[C@@H](C(=O)N2CCCCC2)NC(=O)[C@H](Cc2cscn2)NC(=O)[C@H](C)N(C)C(=O)[C@H](C)N(C)C(=O)[C@H](C)N(C)C(=O)[C@H](Cc2ccccc2)NC(=O)[C@H](Cc2ccccc2)N(C)C1=O [DP-624] ([dV][NMeA][NMeL]L[NMeF]F[NMeA][NMeA][NMeA][Ala(4-thiazolyl)]D-Piperidide; lactam N-11) |  | 30 µL/min/mg |  |  | 24 ×10⁻⁶ cm/s
10 | CC(C)C[C@H]1C(=O)N[C@H](C(=O)N2CCCCC2)CC(=O)N(C)[C@@H](C)C(=O)N(C)[C@@H](Cc2ccccc2)C(=O)N(C)[C@@H](CC(C)C)C(=O)N[C@@H]([C@@H](C)O)C(=O)N(C)CC(=O)N1C [DP-533] ([NMeA][NMeF][NMeL]T[Sar][NMeL]D-Piperidide; lactam N-7) |  | 86 µL/min/mg |  |  | 10 ×10⁻⁶ cm/s
11 | CC[C@H](C)[C@@H]1NC(=O)[C@H](CC(C)C)N(C)C(=O)[C@H](CC(C)C)NC(=O)[C@H](Cc2ccccc2)NC(=O)[C@H]([C@@H](C)O)NC(=O)[C@H](Cc2ccccc2)NC(=O)[C@@H](C)N(C)C(=O)C[C@@H](C(=O)N2CCCCC2)NC(=O)CNC(=O)[C@H](Cc2ccccc2)NC1=O [DP-431] ([dNMeA]FTFL[NMeL]IFGD-Piperidide; lactam N-10) |  | 239 µL/min/mg |  |  | 34 ×10⁻⁶ cm/s
12 | CC(C)C[C@H]1C(=O)N[C@@H](C(C)C)C(=O)N[C@H](C(=O)N(C)[C@@H](Cc2ccccc2)C(=O)N(C)[C@@H](Cc2ccccc2)C(=O)N[C@@H](C)C(=O)N2CCCCC2)CC(=O)N(C)CC(=O)N(C)[C@@H](CC(C)C)C(=O)N(C)[C@@H](Cc2ccccc2)C(=O)N[C@@H]([C@@H](C)O)C(=O)N(C)[C@@H](C)C(=O)N(C)CC(=O)N1C [DP-407] ([Sar][NMeL][NMeF]T[NMeA][Sar][NMeL]VD[NMeF][NMeF]A-Piperidide; lactam N-9) |  | 29 µL/min/mg |  |  | 38 ×10⁻⁶ cm/s
13 | CCCCCC[C@@H]1NC(=O)[C@H](Cc2ccccc2)N(C)C(=O)[C@H](C)N(C)C(=O)C[C@H](C)NC(=O)[C@H](C(C)C)N(C)C(=O)[C@H](COC(C)(C)C)NC(=O)[C@H](C)N(C)C(=O)CN(C)C(=O)[C@H]([C@@H](C)O)NC(=O)[C@H](CC(C)C)N(C)C1=O [DP-822] (cyclo([Aoc(2)][NMeL]T[Sar][NMeA]S(tBu)[NMeV][β3hA][NMeA][NMeF])) |  | 518 µL/min/mg |  |  | 37 ×10⁻⁶ cm/s
14 | CC(C)C[C@@H]1NC(=O)[C@H](C)N(C)C(=O)C[C@@H](C(=O)N2CCCCC2)NC(=O)[C@H](Cc2ccccc2)N(C)C(=O)[C@H](CC(C)C)N(C)C(=O)CN(C)C(=O)[C@H]([C@@H](C)O)NC(=O)[C@H](C)N(C)C(=O)[C@H](C(C)C)N(C)C(=O)[C@H](C)NC(=O)[C@H](CC(C)C)N(C)C(=O)[C@H](Cc2ccccc2)N(C)C1=O [DP-133] ([NMeA]L[NMeF][NMeL]A[NMeV][NMeA]T[Sar][NMeL][NMeF]D-Piperidide; lactam N-12) |  | 51 µL/min/mg |  |  | 30 ×10⁻⁶ cm/s
15 | CC(C)C[C@H]1NC(=O)C[C@@H](C(=O)N2CCCCC2)NC(=O)[C@H](CC(C)C)N(C)C(=O)[C@H](Cc2ccccc2)NC(=O)[C@H](CC(C)C)N(C)C(=O)[C@H](C)N(C)C(=O)[C@H](Cc2c[nH]cn2)NC(=O)[C@H](CC(C)C)N(C)C(=O)[C@H](Cc2ccccc2)N(C)C1=O [DP-904] ([dL][NMeF][NMeL]H[NMeA][NMeL]F[NMeL]D-Piperidide; lactam N-9) |  | 89 µL/min/mg |  |  | 7.8 ×10⁻⁶ cm/s
16 | CC(C)C[C@H]1C(=O)N[C@@H](C(C)C)C(=O)N[C@H](C(=O)N(C)[C@@H](Cc2ccccc2)C(=O)N[C@@H](C)C(=O)N2CCCCC2)CC(=O)N[C@H](C(C)C)C(=O)N(C)[C@@H](Cc2ccccc2)C(=O)N(C)[C@@H](C)C(=O)N(C)[C@@H](CC(C)C)C(=O)N[C@@H]([C@@H](C)O)C(=O)N(C)CC(=O)N1C [DP-198] ([dV][NMeF][NMeA][NMeL]T[Sar][NMeL]VD[NMeF]A-Piperidide; lactam N-9) |  | 34 µL/min/mg |  |  | 36 ×10⁻⁶ cm/s
17 | CC(C)C[C@@H]1NC(=O)[C@H](CC(C)C)N(C)C(=O)[C@H](C)NC(=O)[C@H](C(C)C)N(C)C(=O)CN(C)C(=O)[C@H]([C@@H](C)O)NC(=O)[C@H](C)N(C)C(=O)[C@H](CC(C)C)N(C)C(=O)[C@@H](C)NC(=O)C[C@H](C)NC1=O [DP-818] (cyclo(A[NMeL]L[β3hA][dA][NMeL][NMeA]T[Sar][NMeV])) |  | 1 µL/min/mg |  |  | 2 ×10⁻⁶ cm/s
18 | CC[C@H](C)[C@H](NC(=O)[C@H](Cc1ccccc1)NC(=O)[C@@H](NC(=O)[C@@H]1CC(=O)N[C@H](C)C(=O)N(C)[C@@H](CC(C)C)C(=O)N[C@@H]([C@@H](C)O)C(=O)N(C)[C@@H](CC(C)C)C(=O)N(C)[C@@H](Cc2ccccc2)C(=O)N(C)[C@@H](CC(C)C)C(=O)N1)C(C)C)C(=O)N[C@H](C(=O)N1CCCCC1)[C@@H](C)CC [DP-917] ([dA][NMeL]T[NMeL][NMeF][NMeL]DVFII-Piperidide; lactam N-7) | 1.0E−07 | 177 µL/min/mg |  |  | 
19 | CC(C)[C@@H]1NC(=O)[C@H](C)N(C)C(=O)CNC(=O)[C@H]([C@@H](C)O)NC(=O)[C@H](C(C)C)N(C)C(=O)[C@H](C)NC(=O)[C@@H](C)N(C)C(=O)C[C@@H](C(=O)N(C)[C@@H](Cc2ccccc2)C(=O)N(C)[C@@H](Cc2ccccc2)C(=O)N[C@@H](C)C(=O)N2CCCCC2)NC(=O)[C@H](Cc2ccccc2)N(C)C(=O)[C@H](C)N(C)C1=O [DP-505] ([dNMeA]A[NMeV]TG[NMeA]V[NMeA][NMeF]D[NMeF][NMeF]A-Piperidide; lactam N-10) |  | 18 µL/min/mg |  |  | 6.8 ×10⁻⁶ cm/s
